# According to US4973587A, “3-arylcarbonyl-1-aminoalkyl-1H-indole-containing antiglaucoma method” (Sterling Drug Inc., priority 1990, dated 1990):
# What was measured:
# mouse vas deferens = mouse vas deferens test (MVD); assay type: cell-based; details: inhibition of contractions in mouse vas deferens preparation in vitro, active at 5.0 μM or less
# Excerpt: (§1) Med. Assoc. 217, 1392 (1971)]. […] Opth 7, 921-923 (1975); Green and Pederson, Effect of delta-9 Tetrahydrocannabinol on Aqueous Dynamics and Ciliary Body Permeability in the Rabbit Eye., Exptl. Eye Research 15, 499-507 (1973); Colasanti, Craig and Allara, Intraocular Pressure, Ocular Toxicity and Neurotoxicity after Administration of Cannabinol or Cannibigerol, Exptl. Eye Research 39, 252-259 (1984)]. Similarly, synthetic cannabinoids also reduce intraocular pressure [Green, Symunds, Oliver and Elijah, Intraocular Pressure Following Systemic Administration of Cannabinoids, Curr. Eye Research 2, 247-253 (1982); Tiedeman, Shields, Weber, Crow, Coccetto, Harris and Howes, Ophthalmology., 88, 270-277 (1981); Colasanti et al., supra]. Cannabinoid receptor binding sites can be defined as those to which radio-labelled 4-(1,1-dimethylheptyl)-2,3'-dihydroxy-6'alpha-(3-hydroxypropyl)-1',2',3',4',5',6'-hexahydrobiphenyl (CP 55940) binds in a specific and saturable manner, and the binding sites are heterogeneously distributed in the brain [Devane, Dysarz, Johnson, Melvin and Howlett, Determination and Characterization of a Cannabinoid Receptor in Rat Brain, Molecular Pharm. 34, 605-613 (1988)]. Natural and synthetic cannabinoids and representative examples of the compounds of the present invention bind to CP 55940 binding sites. […] It is believed that agonist activity at the cannabinoid receptor mediates the anti-glaucoma actions of cannabinoids, and that agonist activity at this receptor correlates with ocular pressure lowering actions in man.
# [1] = biological target: T1, cannabinoid receptor (CP 55940 binding sites) (Rattus norvegicus, UniProt P20272); test: CP55490 binding assay (CP); details: for inhibition at 1 µM: read-out: CP % I; for IC50: CP55490 binding assay
# T1 construct: from tissue
# T1 sequence (P20272 whole entry): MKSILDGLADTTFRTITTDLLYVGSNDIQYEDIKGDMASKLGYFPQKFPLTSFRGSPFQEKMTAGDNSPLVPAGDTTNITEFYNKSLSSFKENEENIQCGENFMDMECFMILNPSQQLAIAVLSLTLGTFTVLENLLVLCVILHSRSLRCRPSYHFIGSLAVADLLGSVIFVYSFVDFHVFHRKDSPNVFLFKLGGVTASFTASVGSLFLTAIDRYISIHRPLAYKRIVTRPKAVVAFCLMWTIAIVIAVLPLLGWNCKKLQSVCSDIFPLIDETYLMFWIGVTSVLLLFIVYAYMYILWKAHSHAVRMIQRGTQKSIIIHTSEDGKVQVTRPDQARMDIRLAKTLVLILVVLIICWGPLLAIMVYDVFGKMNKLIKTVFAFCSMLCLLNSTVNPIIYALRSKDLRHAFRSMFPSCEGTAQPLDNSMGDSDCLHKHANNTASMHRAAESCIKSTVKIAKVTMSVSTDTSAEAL
# Excerpt: as §1
# intraocular pressure = details: topical application or systemic injection; cited from earlier work
SMILES,IC50 (mouse vas deferens; Mus musculus),further results
"COc1ccc(C(=O)c2cn(CCN3CCOCC3)c3ccccc23)cc1 [Example 1A, 3-(4-methoxybenzoyl)-1-[2-(4-morpholinyl)ethyl]1H-indole methanesulfonate monohydrate]",100 nM,inhibition at 1 µM [1]: 59%
Cc1c(C(=O)c2cccc3ccccc23)c2ccccc2n1CCN1CCOCC1 [Example 1AP],15 nM,IC50 [1]: 51 nM
COc1ccc(C(=O)c2c(C)n(CCN3CCOCC3)c3ccccc23)cc1 [Example 1B],,IC50 (mouse vas deferens): 500 nM; IC50 [1]: 3000 to 10000 nM
COc1ccc(C(=O)c2c(C)n(CCN3CCOCC3)c3ccccc23)c(OC)c1OC [Example 1CA],70 nM,inhibition at 1 µM [1]: 70%
Cc1c(C(=O)c2csc3ccccc23)c2ccccc2n1CCN1CCOCC1 [Example 1Q],18 nM,IC50 [1]: ~50 nM
Cc1c(C(=O)c2ccccc2F)c2ccccc2n1C(C)CN1CCOCC1 (centres unmarked) [Example 2C],,IC50 (mouse vas deferens): 490 nM
CC(CN1CCOCC1)n1cc(C(=O)c2ccccc2F)c2ccccc21 (centres unmarked) [Example 2E],2400 nM,
COc1ccc(C(=O)c2c(C)n(C(C)CN3CCOCC3)c3ccccc23)cc1 (centres unmarked) [Example 2G],1300 nM,
Cc1cccc2c(C(=O)c3ccccc3)cn(C(C)CN3CCOCC3)c12 (centres unmarked) [Example 2H],177 nM,
Cc1ccccc1C(=O)c1c(C)n(CCN2CCOCC2)c2ccccc12 [Example 2K],710 nM,
Cc1c(C(=O)c2coc3ccccc23)c2ccccc2n1CCN1CCOCC1 [Example 2N],52 nM,
COc1ccc(C(=O)c2c(Cl)n(CCN3CCOCC3)c3ccccc23)cc1 [Example 2Q],176 nM,
Cc1c(C(=O)c2cccc3ccccc23)c2ccccc2n1C(C)CN1CCOCC1 (centres unmarked) [Example 2Y],10 nM,
O=C(c1cccc2ccccc12)c1cn(CCN2CCOCC2)c2ccccc12 [Example 2Z],6 nM,IC50 [1]: 88 nM
"Cc1c(C(=O)c2cccc3ccccc23)c2ccccc2n1CCN1CCCCC1 [Example 3A, 2-methyl-3-(1-naphthylcarbonyl)-1-[2-(1-piperidinyl)ethyl]-1H-indole]",66 nM,
COc1ccc(C(=O)c2c(C)n(CCN3CCCC(O)C3)c3ccccc23)cc1 (centres unmarked) [Example 3B],> 10000 nM,

SMILES,IC50 (mouse vas deferens; Mus musculus),further results
Cc1c(C(=O)c2cccc3ccccc23)c2ccccc2n1CCN1CCCC(O)C1 (centres unmarked) [Example 3D],236 nM,IC50 [1]: 200 to 500 nM
Cc1c(C(=O)c2cccc3ccccc23)c2ccccc2n1CCN1CCOC(C)C1 (centres unmarked) [Example 3E],210 nM,
CCN(CC)CCCn1c(C)c(C(=O)c2ccc(OC)cc2)c2ccccc21 [Example 3J],> 10000 nM,
Cc1c(C(=O)c2cccc3ccccc23)c2ccccc2n1CCN1CCOCC1C (centres unmarked) [Example 3K],30 nM,
"Cc1c(C(=O)c2cccc(N)c2)c2ccccc2n1CCN1CCOCC1 [Example 4A, 2-methyl-3-(3-aminobenzoyl)-1-[2 (4-morpholinyl)ethyl]-1H-indole]",700 nM,
"Cc1c(C(=O)c2ccc(N)cc2)c2ccccc2n1CCN1CCOCC1 [Example 4B, 2-methyl-3-(4-aminobenzoyl)-1-[2-(4morpholinyl)ethyl]-1H-indole]",520 nM,
"Cc1c(C(=O)c2cccc(O)c2O)c2ccccc2n1CCN1CCOCC1 [Example 5A, 2-methyl-3-(2,3-dihydroxybenzoyl)-1-[2-(4-morpholinyl)ethyl]-1H-indole]",180 nM,
"O=C(c1cccc2ccccc12)c1cn(CCN2CCOCC2)c2ccc(O)cc12 [Example 5B, 5-hydroxy-3-(1-naphthylcarbonyl)-1-[2-(4-morpholinyl)ethyl]-1H-indole]",20 nM,
"COc1ccc(C(=O)c2cn(CCN3CCOCC3)c3c(O)cccc23)cc1 [Example 5C, 7-hydroxy-3-(4-methoxybenzoyl)-1-[2-(4-morpholinyl)ethyl]-1H-indole]",400 nM,
"Cc1c(C(=O)c2ccc(C#N)c3ccccc23)c2ccccc2n1CCN1CCOCC1 [Example 7A, 2-methyl-3-(4-cyano-1-naphthylcarbonyl)-1-[2-(4-morpholinyl)ethyl]-1H-indole]",14 nM,
Cc1c(C(=O)c2ccc(-n3ccnc3)c3ccccc23)c2ccccc2n1CCN1CCOCC1 [Example 7B],5 nM,
O=C(c1ccc(-n2ccnc2)c2ccccc12)c1cn(CCN2CCOCC2)c2ccccc12 [Example 7C],8 nM,
N#Cc1ccc(C(=O)c2cn(CCN3CCOCC3)c3ccccc23)c2ccccc12 [Example 7D],5 nM,
"COc1ccc(C(=S)c2c(C)n(CCN3CCOCC3)c3ccccc23)cc1 [Example 9, 2-methyl-3-(4-methoxyphenylthiocarbonyl)-1-[2-(4-morpholinyl)-ethyl]-1H-indole]",110 nM,
CCCCCc1cc(O)c2c(c1)OC(C)(C)[C@@H]1CCC(C)=C[C@@H]21 [delta-9 tetrahydrocannabinol],,intraocular pressure (intraocular pressure): reduces intraocular pressure
